Paper PMC6108126, “Purification, characterization and immunogenicity assessment of glutaminase free L-asparaginase from Streptomyces brollosae NEAE-115” (BMC Pharmacology & Toxicology, 2018)

B1: commercially available L-asparaginase from E. coli (Escherichia coli K-12) (protein)
chain: LPNITILATGGTIAGGGDSATKSNYTVGKVGVENLVNAVPQLKDIANVKGEQVVNIGSQDMNDNVWLTLAKKINTDCDKTDGFVITHGTDTMEETAYFLDLTVKCDKPVVMVGAMRPSTSMSADGPFNLYNAVVTAADKASANRGVLVVMNDTVLDGRDVTKTNTTDVATFKSVNYGPLGYIHNGKIDYQRTPARKHTSDTPFDVSKLNELPKVGIVYNYANASDLPAKALVDAGYDGIVSAGVGNGNLYKSVFDTLATAAKTGTAVVRSSRVPTGATTQDAEVDDAKYGFVASGTLNPQKARVLLQLALTQTKDPQQIQQIFNQY

What was measured:
[1] = system: T1, L-asparaginase from Streptomyces brollosae NEAE-115; settings: 0.05 M Tris-HCl, pH 8.6, 37 °C (standard assay); 1-10 mM substrate
T1 construct: gene L-asparagine amidohydrolase

purified protein = substrate: NC(=O)C[C@H](N)C(=O)O; experiment: purified protein; settings: 0.05 M Tris-HCl, pH 8.6, 37 °C (standard assay), 1-10 mM substrate

Row | Molecule | Km [1] [mM] | Km (purified protein) [µM]
1 | NC(=O)C[C@H](N)C(=O)O [L-asparagine] | 2.14 | –
2 | B1 | – | 176
